Test results published in patent EP0497988A1, “ANTIVIRAL AGENT” (DAINIPPON INK AND CHEMICALS, INC., priority 1990, dated 1992).
Values after ≈ are worked out from the molar mass of the structure shown.

What was measured:
HTLV-IIIB = test: Anti-HIV activity by MTT (tetrazolium) method in MT-4 cells; type: cell-based; details: for EC₅₀: MT-4 cells infected with HTLV-IIIB, MOI 0.01, 5 days, MTT
Experimental: (§1) Test Method: MMT (the tetrazolium assay) method Cell: MT-4 Cell Virus: HTLV-IIIB (Infection : 3 x 10⁵ plaque forming units (PFU)/ml) MT-4 cells were suspended in a culture medium at 2 x 10⁵ cells/ml and infected with HIV-IIIB at a multiplicity of infection of 0.01. Immediately after infection, 100µl of cell suspension was placed into microtiter tray wells containing various concentrations of the test samples. At the same time, the mock-infected cells were also cultured together with the samples in order to assess the cell toxicity of the test samples to the MT-4 cell. They were cultured in a CO₂-gas incubator at 37°C for 5 days, and the number of viable cells were determined by the MTT method. Antiviral activity is expressed by EC₅₀ (50% effective concentration), the concentration at which the agent protects 50% of the cells from injury by HIV infection, and cell toxicity by CC₅₀ (50% cell toxicity concentration), the concentration at which 50% of the cells are injured by the agent. Selectivity is measured by a selectivity index (S.I), which is expressed by CC₅₀/EC₅₀ (R. Pauwels, et al., J. of […], vol. 20, 1988, pp. 309-321).

MT-4 Cell [1] = test: Cell toxicity to mock-infected MT-4 cells by MTT method; type: cell-based; details: 5 days
Experimental: as §1

[2] = as above; type: cell-based; details: human, 5 days, read-out: CC₅₀
Experimental: as §1

MT-4 Cell [3] = test: Viable count of mock-infected MT-4 cells cultured with sample (trypan blue exclusion); type: cell-based
Experimental: Samples: MPS-1, MPS-2, MPS-3 and LPS-1 Cell and Virus: MT-4 Cell, MOLT-4 Cell HTLV as one HIV strain was prepared from the supernatant of the HIV-infected cells. The titer for the virus preparation (6 x 10⁵ plaque formation units/ml) was measured by the plaque assay method using MT-4 cells.
The MT-4 cells were mixed with HIV at 0.002MOI (multiplicity of infection), to be cultured at 37°C for 60 min. The virus-absorbing cells were washed and adjusted at 3 x 10⁵ cells/ml (the culture medium was RPMI1640 which supplemented with 10% heat-inactivated fetal calf serum and antibiotic). The suspension of the infected cells was cultured in the presence of the sample, and then cultured in a CO₂-containing atmosphere for 3 days. Then, the medium was replaced with the one containing the same quantity of the sample. Percentages of the viable cells and virus antigen positive cells were counted by the trypan blue exclusion method and indirect fluorescent antibody (IF) methods, respectively.
The test results are given in Tables 1 through 8, where the units for concentration, mock-infected cell count, infected cell count, percentage of HIV-antigen positive cell are µg/ml, x 10⁴cells/ml, and x 10⁴cells/ml, %, respectively.

HIV [4] = test: HIV-induced cytopathic effect: viable count of HIV-infected MT-4 cells (trypan blue exclusion)
Experimental: (§2) The anti-HIV activity of each sample was evaluated by the HIV-induced cytopathic effect (CPE) and the expression of the virus-specific antigen.

HIV [5] = test: Expression of virus-specific antigen in HIV-infected MT-4 cells (indirect fluorescent antibody method)
Experimental: as §2

[6] = 3rd day, concentration 25 µg/ml
[7] = 3rd day, concentration 50 µg/ml
[8] = 3rd day, concentration 100 µg/ml
[9] = 3rd day, concentration 200 µg/ml
[10] = 3rd day, concentration 500 µg/ml
[11] = 6th day, concentration 25 µg/ml
[12] = 6th day, concentration 50 µg/ml
[13] = 6th day, concentration 100 µg/ml
[14] = 6th day, concentration 200 µg/ml

Molecule: sodium salt of octadecyl maltoheptaoside sulfate [MHS-1]
- EC₅₀ (HTLV-IIIB): 2) > 40 µg/ml
- CC₅₀ (MT-4 Cell [1]): 355 µg/mL

Molecule: sodium salt of dodecyl 4-galactosyl-β-D-lactoside sulfate [GTS-2]
- EC₅₀ (HTLV-IIIB): 8.6 µg/mL
- CC₅₀ (MT-4 Cell [1]): 858 µg/mL

Molecule: Cc1cn([C@H]2C[C@H](N=[N+]=[N-])[C@@H](CO)O2)c(=O)[nH]c1=O [AZT, 3'-azide-3'-deoxythymidine, reference compound]
- EC50 (HTLV-IIIB; Human immunodeficiency virus 1, IIIB, MT4, 120 h, read-out: EC₅₀): 0.0019 µg/mL (≈ 0.00711 µM)
- CC50 at 120 h [2]: 3.06 µg/mL (≈ 11.5 µM)

Molecule: sodium salt of sulfated dodecyl β-D-laminarpentaoside [LPS-1]
- Mock-infected cell count (MT-4 Cell [3]; [6]): 151 x 10⁴cells/ml
- Mock-infected cell count (MT-4 Cell [3]; [7]): 149 x 10⁴cells/ml
- Mock-infected cell count (MT-4 Cell [3]; [8]): 136 x 10⁴cells/ml
- Mock-infected cell count (MT-4 Cell [3]; [9]): 120 x 10⁴cells/ml
- Mock-infected cell count (MT-4 Cell [3]; [10]): 79 x 10⁴cells/ml
- Mock-infected cell count (MT-4 Cell [3]; [11]): 145 x 10⁴cells/ml
- Mock-infected cell count (MT-4 Cell [3]; [12]): 149 x 10⁴cells/ml
- Mock-infected cell count (MT-4 Cell [3]; [13]): 140 x 10⁴cells/ml
- Mock-infected cell count (MT-4 Cell [3]; [14]): 124 x 10⁴cells/ml
- HIV-infected cell count (HIV [4]; [6]): 133 x 10⁴cells/ml
- HIV-infected cell count (HIV [4]; [7]): 128 x 10⁴cells/ml
- HIV-infected cell count (HIV [4]; [8]): 130 x 10⁴cells/ml
- HIV-infected cell count (HIV [4]; [11]): 88 x 10⁴cells/ml
- HIV-infected cell count (HIV [4]; [12]): 150 x 10⁴cells/ml
- HIV-infected cell count (HIV [4]; [13]): 107 x 10⁴cells/ml
- Percentage of HIV-antigen positive cell (HIV [5]; [6]): 3%
- Percentage of HIV-antigen positive cell (HIV [5]; [7]): < 1%
- Percentage of HIV-antigen positive cell (HIV [5]; [8]): < 1%
- Percentage of HIV-antigen positive cell (HIV [5]; [9]): < 1%
- Percentage of HIV-antigen positive cell (HIV [5]; [10]): < 1%
- Percentage of HIV-antigen positive cell (HIV [5]; [11]): 20%
- Percentage of HIV-antigen positive cell (HIV [5]; [12]): < 1%
- Percentage of HIV-antigen positive cell (HIV [5]; [13]): 0%
- Percentage of HIV-antigen positive cell (HIV [5]; [14]): 0%

Molecule: sodium salt of dodecyl 4-galactosyl β-D-lactoside sulfate [GTS-1]
- EC₅₀ (HTLV-IIIB): 9.8 µg/mL

Molecule: sodium salt of dodecyl maltohexaoside sulfate [MHS-2]
- EC₅₀ (HTLV-IIIB): 3.91 µg/mL
- CC₅₀ (MT-4 Cell [1]): > 1000 µg/mL

Molecule: sodium salt of n-decyl β-laminaripentaoside sulfate [LPS-3]
- EC₅₀ (HTLV-IIIB): = 67 µg/ml

Molecule: sodium salt of octadecyl maltotrioside sulfate [MTS-1]
- EC₅₀ (HTLV-IIIB): 1) > 40 µg/ml
- CC₅₀ (MT-4 Cell [1]): 329 µg/mL

Molecule: sodium salt of n-hexadecyl β-laminaripentaoside sulfate [LPS-2]
- EC₅₀ (HTLV-IIIB): = 17 µg/ml

Molecule: sodium salt of dodecyl β-D-laminaripentaoside sulfate [LPS-1-1]
- EC₅₀ (HTLV-IIIB): 0.68 µg/mL
- CC₅₀ (MT-4 Cell [1]): > 1000 µg/mL

Molecule: sodium salt of octadecyl maltohexaoside sulfate [MHS-3]
- EC₅₀ (HTLV-IIIB): 10.36 µg/mL
- CC₅₀ (MT-4 Cell [1]): 580 µg/mL
